{
  "source": "paper PMC4742142",
  "about": "“Identification of novel, in vivo active Chk1 inhibitors utilizing structure guided drug design” (Oncotarget, 2015)",
  "key": {"[1]": {"tested_on": "panel of human cancer cell lines", "experiment": "Single agent cytotoxicity, whole panel", "format": "cell-based", "settings": "range over the cell lines, read-out: GI50s across the panel", "procedure": "All cells were obtained from the American Type Culture Collection and maintained as low passage stocks. Cells were routinely cultured in DMEM or RPMI1640 containing 10% FCS and 1% penicillin / streptomycin (Invitrogen). The cytotoxicity of V158411 was determined following exposure of cells in 96 well plates using a 10-point titration for 72 hours. Cell proliferation was determined using sulphorhodamine B staining following protein precipitation with 10% TCA."}, "pH2AX (S139)": {"tested_on": "pH2AX (S139)", "experiment": "pH2AX ELISA in HT29 cells with gemcitabine", "format": "cell-based", "settings": "Homo sapiens, HT-29, 50 nM gemcitabine, 24 hours, read-out: Gem pH2AX (S139) EC50", "procedure": "1 × 10^4 HT29 cells were seeded per well of a 96 well plate and treated with a combination of 50 nM gemcitabine plus increasing concentrations of V158411 for 24 hours. Following fixation with methanol, pH2AX was detected with a mouse monoclonal antibody (JBW301, Millipore) and a europium-labeled anti-mouse secondary antibody."}, "HT29 cells": {"tested_on": "HT29 cells", "experiment": "Checkpoint abrogation assay (gemcitabine, nocodazole, pHH3 (S10))", "format": "cell-based, human", "procedure": "The ability of V158411 to abrogate gemcitabine induced S-phase arrest was further characterized using a checkpoint abrogation assay. Cells were pre-treated with gemcitabine for 16 hours followed by increasing concentrations of V158411 in the presence of nocodazole, an inhibitor of microtubule polymerization, for a further 24 hours. Mitotic cells were then scored for pHH3 (S10) expression. p53 defective HT29 cells exposed to gemcitabine, which induces arrest in S-phase, were negative for pHH3 (S10) staining. V158411 treatment abrogated the gemcitabine induced S-phase arrest allowing cells to progress through into mitosis where they were trapped by nocodazole. These cells stained positive for pHH3 and are indicative of checkpoint abrogation."}},
  "data": [
    {"smiles": "CN(C)CC(C)(C)COc1ccc2[nH]c(-c3cc(NC(=O)c4cnn(Cc5ccccc5)c4)c[nH]c3=O)cc2c1", "note": "[V158411]", "values": [
      {"measurement": "IC50", "setting": "[1]", "result": "500 to 9500", "unit": "nM"},
      {"measurement": "EC50", "setting": "pH2AX (S139)", "result": 51, "unit": "nM"},
      {"measurement": "concentration of maximal abrogation of gemcitabine induced S-phase arrest", "setting": "HT29 cells", "result": "around 300 nM"},
      {"measurement": "EC50", "setting": "HT29 cells; Homo sapiens, HT-29, gemcitabine 16 hours then compound plus nocodazole 24 hours, read-out: Gem pHH3 (S10) MI EC50 (abrogation of gemcitabine induced S-phase arrest)", "result": 79, "unit": "nM"}
    ]}
  ]
}
